Reference: ChEMBL document CHEMBL4311991, “Design, synthesis, and biological evaluation of 1-substituted -2-aryl imidazoles targeting tubulin polymerization as potential anticancer agents” (Eur J Med Chem, 2019)
In brackets after ≈: the same amount, converted by molar mass. Activity calls are given as the source filed them. The rule behind the calls is not given here.

Legend:
HCT-15 = assay: Antiproliferative activity against human HCT15 cells assessed as reduction in cell viability after 72 hrs by MTT assay; assay type: functional, cell-based; conditions: HCT-15, 72 h
MDA-MB-231 = assay: Antiproliferative activity against human MDA-MB-231 cells assessed as reduction in cell viability after 72 hrs by MTT assay; assay type: functional, cell-based; conditions: MDA-MB-231, 72 h
HT-29 = assay: Antiproliferative activity against human HT-29 cells assessed as reduction in cell viability after 72 hrs by MTT assay; assay type: functional, cell-based; conditions: HT-29, 72 h
T47D = assay: Antiproliferative activity against human T47D cells assessed as reduction in cell viability after 72 hrs by MTT assay; assay type: functional, cell-based
HeLa = assay: Antiproliferative activity against human HeLa cells assessed as reduction in cell viability after 72 hrs by MTT assay; assay type: functional, cell-based
MDA-MB-468 [1] = assay: Antiproliferative activity against human MDA-MB-468 cells assessed as reduction in cell viability after 72 hrs by MTT assay; assay type: functional, cell-based; conditions: MDA-MB-468, 72 h
HUVEC = assay: Cytotoxicity against HUVEC assessed as reduction in cell viability after 72 hrs by MTT assay; assay type: cell-based; conditions: Homo sapiens
MDA-MB-468 [2] = assay: Induction of cell cycle arrest in human MDA-MB-468 cells assessed as accumulation of cells at G2/M phase at IC50 concentration by propidium iodide staining-based flow cytometric analysis; assay type: functional; conditions: TDE = time-dependent effect
MDA-MB-468 [3] = assay: Induction of apoptosis in human MDA-MB-468 cells assessed as late apoptotic cells at 100 nM after 72 hrs by Annexin-FITC/propidium iodide staining based flow cytometry (reference value: 1.03 to 1.59%); assay type: functional
Mus musculus [4] = species on record: Mus musculus; assay: Inhibition of tubulin polymerization in mouse B16F10 cells assessed as disruption of microtubule network at 200 nM incubated for 6 hrs by DAPI staining based confocal microscopy; assay type: cell-based
[5] = Retention time of the compound using acetonitrile:water at ratio of 50:50 as mobile phase by reverse-phase HPLC analysis; assay type: physicochemical; conditions: buffer
MDA-MB-468 [6] = assay: Induction of apoptosis in human MDA-MB-468 cells assessed as necrotic cells at 100 nM after 72 hrs by Annexin-FITC/propidium iodide staining based flow cytometry (reference value: 0.97 to 1.29%); assay type: functional
MDA-MB-468 [7] = assay: Induction of apoptosis in human MDA-MB-468 cells assessed as early apoptotic cells at 100 nM after 24 hrs by Annexin-FITC/propidium iodide staining based flow cytometry (reference value: 0.35 to 1.25%); assay type: functional
MDA-MB-468 [8] = assay: Induction of apoptosis in human MDA-MB-468 cells assessed as necrotic cells at 100 nM after 24 hrs by Annexin-FITC/propidium iodide staining based flow cytometry (reference value: 0.97 to 1.29%); assay type: functional
MDA-MB-468 [9] = assay: Induction of apoptosis in human MDA-MB-468 cells assessed as late apoptotic cells at 100 nM after 24 hrs by Annexin-FITC/propidium iodide staining based flow cytometry (reference value: 1.03 to 1.59%); assay type: functional
MDA-MB-468 [10] = assay: Induction of apoptosis in human MDA-MB-468 cells assessed as viable cells at 100 nM after 24 hrs by Annexin-FITC/propidium iodide staining based flow cytometry (reference value: 96.8%); assay type: functional; conditions: MDA-MB-468, 24 h, read-out: Activity
MDA-MB-468 [11] = assay: Induction of apoptosis in human MDA-MB-468 cells assessed as early apoptotic cells at 100 nM after 48 hrs by Annexin-FITC/propidium iodide staining based flow cytometry (reference value: 0.35 to 1.25%); assay type: functional
MDA-MB-468 [12] = assay: Antitumor activity against human MDA-MB-468 cells xenografted in nude mouse assessed as tumour growth inhibition at 60 mg/kg, ip administered every other day for 21 days relative to control; assay type: functional; conditions: MDA-MB-468, ip, 504 h, read-out: TGI
MDA-MB-468 [13] = assay: Induction of apoptosis in human MDA-MB-468 cells assessed as early apoptotic cells at 100 nM after 72 hrs by Annexin-FITC/propidium iodide staining based flow cytometry (reference value: 0.35 to 1.25%); assay type: functional
MDA-MB-468 [14] = assay: Induction of apoptosis in human MDA-MB-468 cells assessed as viable cells at 100 nM after 72 hrs by Annexin-FITC/propidium iodide staining based flow cytometry (reference value: 96.8%); assay type: functional; conditions: MDA-MB-468, 72 h, read-out: Activity
MDA-MB-468 [15] = assay: Induction of apoptosis in human MDA-MB-468 cells assessed as necrotic cells at 100 nM after 48 hrs by Annexin-FITC/propidium iodide staining based flow cytometry (reference value: 0.97 to 1.29%); assay type: functional
MDA-MB-468 [16] = assay: Induction of apoptosis in human MDA-MB-468 cells assessed as late apoptotic cells at 100 nM after 48 hrs by Annexin-FITC/propidium iodide staining based flow cytometry (reference value: 1.03 to 1.59%); assay type: functional
MDA-MB-468 [17] = assay: Induction of apoptosis in human MDA-MB-468 cells assessed as viable cells at 100 nM after 48 hrs by Annexin-FITC/propidium iodide staining based flow cytometry (reference value: 96.8%); assay type: functional; conditions: MDA-MB-468, 48 h, read-out: Activity
Tubulin (Sus scrofa) [18] = target: T1, Tubulin (Sus scrofa) (UniProt P02554+P02550); assay: Inhibition of pig brain tubulin polymerization at 3 to 6 uM in presence of GTP by spectrophotometric analysis relative to control
[19] = Toxicity in nude mouse xenografted with human MDA-MB-468 cells assessed as effect on body weight at 30 to 60 mg/kg, ip administered every other day for 21 days; assay type: organism-based; conditions: in vivo, 504 h
Mus musculus [20] = species on record: Mus musculus; assay: Inhibition of tubulin polymerization in mouse B16F10 cells assessed as disruption of microtubule network at 400 nM incubated for 6 hrs by DAPI staining based confocal microscopy; assay type: cell-based
Tubulin (Sus scrofa) [21] = target: T1, Tubulin (Sus scrofa); assay: (§1) Inhibition of pig brain tubulin polymerization in presence of GTP by spectrophotometric analysis
Tubulin = Tubulin (Sus scrofa, UniProt P02554+P02550); assay: as §1
[22] = Aqueous solubility of the compound at 1 mg/ml after 24 hrs by shake flask method based HPLC analysis; assay type: physicochemical
[23] = 1-Octanol/water partition coefficient, log P of compound at 1 mg after 1 hr by HPLC analysis; assay type: physicochemical
MDA-MB-468 [24] = assay: Antitumor activity against human MDA-MB-468 cells xenografted in nude mouse assessed as tumour growth inhibition at 30 mg/kg, ip administered every other day for 21 days relative to control; assay type: functional; conditions: MDA-MB-468, ip, 504 h, read-out: TGI
[25] = Ratio of compound aqueous solubility to CA-4 aqueous solubility at 1 mg/ml after 24 hrs by shake flask method based HPLC analysis; assay type: physicochemical; conditions: buffer

T1 sequence (P02550 whole entry, looked up): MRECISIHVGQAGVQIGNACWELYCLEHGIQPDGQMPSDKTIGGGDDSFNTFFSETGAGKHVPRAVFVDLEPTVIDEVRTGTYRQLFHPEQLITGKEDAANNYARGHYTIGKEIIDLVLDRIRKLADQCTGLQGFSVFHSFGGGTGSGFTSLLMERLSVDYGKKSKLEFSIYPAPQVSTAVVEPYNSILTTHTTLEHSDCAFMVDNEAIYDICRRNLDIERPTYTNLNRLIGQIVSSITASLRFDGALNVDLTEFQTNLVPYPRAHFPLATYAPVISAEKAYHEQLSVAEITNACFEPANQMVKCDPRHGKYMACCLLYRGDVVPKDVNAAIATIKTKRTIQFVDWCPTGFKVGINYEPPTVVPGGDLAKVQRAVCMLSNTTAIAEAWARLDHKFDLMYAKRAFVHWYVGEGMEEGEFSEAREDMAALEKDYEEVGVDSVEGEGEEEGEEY
T1 sequence (P02554 whole entry, looked up): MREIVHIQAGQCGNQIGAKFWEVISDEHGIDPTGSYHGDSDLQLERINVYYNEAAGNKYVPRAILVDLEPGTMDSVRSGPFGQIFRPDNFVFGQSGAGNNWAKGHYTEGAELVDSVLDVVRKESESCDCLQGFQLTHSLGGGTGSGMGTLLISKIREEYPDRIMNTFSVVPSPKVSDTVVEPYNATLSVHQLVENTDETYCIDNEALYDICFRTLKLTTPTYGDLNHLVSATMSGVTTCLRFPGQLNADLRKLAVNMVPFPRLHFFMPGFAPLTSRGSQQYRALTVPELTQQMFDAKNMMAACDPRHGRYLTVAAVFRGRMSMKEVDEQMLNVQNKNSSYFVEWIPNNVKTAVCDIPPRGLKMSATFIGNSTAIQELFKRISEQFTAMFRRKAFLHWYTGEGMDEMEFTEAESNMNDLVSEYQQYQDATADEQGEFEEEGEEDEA

COc1cc(-c2nccn2-c2ccc(C)cc2)cc(OC)c1OC
IC50 (HCT-15): 0.8 µM
IC50 (MDA-MB-231): 4.1 µM
IC50 (HT-29): 1.6 µM
IC50 (T47D): 20.5 µM
IC50 (HeLa): 0.7 µM
IC50 (MDA-MB-468 [1]): 0.4 µM
IC50 (HUVEC): > 100 µM

COc1cc(-c2nccn2-c2cccc([N+](=O)[O-])c2)cc(OC)c1OC
IC50 (HCT-15): > 100 µM
IC50 (MDA-MB-231): > 100 µM
IC50 (HT-29): > 100 µM
IC50 (T47D): 17.9 µM
IC50 (HeLa): 6.7 µM
IC50 (MDA-MB-468 [1]): 7.2 µM
IC50 (HUVEC): > 100 µM

COc1cc(-c2nccn2-c2ccc(Br)cc2)cc(OC)c1OC
IC50 (HCT-15): 11.7 µM
IC50 (MDA-MB-231): 8.4 µM
IC50 (HT-29): 7.7 µM
IC50 (T47D): 24.6 µM
IC50 (HeLa): 3.3 µM
IC50 (MDA-MB-468 [1]): 2.7 µM
IC50 (HUVEC): > 100 µM

COc1ccc(/C=C\c2cc(OC)c(OC)c(OC)c2)cc1O [COMBRETASTATIN A4]
Activity (MDA-MB-468 [2]): Tde
Activity (MDA-MB-468 [3]): 55.3%
IC50 (HCT-15): 0.0032 µM
inhibition (Mus musculus [4]): Active
Retention_time [5]: 12.5 min
Activity (MDA-MB-468 [6]): 9.4%
Activity (MDA-MB-468 [7]): 1.44%
IC50 (MDA-MB-231): 0.0135 µM
IC50 (HT-29): 0.0305 µM
Activity (MDA-MB-468 [8]): 3.67%
IC50 (T47D): 0.0146 µM
Activity (MDA-MB-468 [9]): 15.7%
viability at 0.1 µM (MDA-MB-468 [10]): 79.2%
Activity (MDA-MB-468 [11]): 0.84%
inhibition in vivo at 60 mg/kg (MDA-MB-468 [12]): 87.5%
Activity (MDA-MB-468 [13]): 1.84%
viability at 0.1 µM (MDA-MB-468 [14]): 33.4%
IC50 (HeLa): 0.0092 µM
IC50 (MDA-MB-468 [1]): 0.0065 µM
Activity (MDA-MB-468 [15]): 7.2%
Activity (MDA-MB-468 [16]): 31.9%
IC50 (HUVEC): > 100 µM
viability at 0.1 µM (MDA-MB-468 [17]): 60%

COc1cc(-c2nccn2-c2ccc3[nH]ccc3c2)cc(OC)c1OC
IC50 (HCT-15): 4.6 µM
IC50 (MDA-MB-231): 4.3 µM
IC50 (HT-29): 9.1 µM
IC50 (T47D): 2.1 µM
IC50 (HeLa): 4.4 µM
IC50 (MDA-MB-468 [1]): 2.3 µM
IC50 (HUVEC): 46.7 µM

COc1cc(-c2nccn2-c2ccc3cc[nH]c3c2)cc(OC)c1OC
IC50 (HCT-15): 4 µM
IC50 (MDA-MB-231): 7.5 µM
IC50 (HT-29): 3.6 µM
IC50 (T47D): 18 µM
IC50 (HeLa): 4.8 µM
IC50 (MDA-MB-468 [1]): 1.7 µM
IC50 (HUVEC): 40 µM

COc1ccc(-n2ccnc2-c2cc(OC)c(OC)c(OC)c2)cc1
IC50 (HCT-15): 1.3 µM
IC50 (MDA-MB-231): 2.7 µM
IC50 (HT-29): 13.1 µM
IC50 (T47D): 1.4 µM
IC50 (HeLa): 1.2 µM
IC50 (MDA-MB-468 [1]): 0.5 µM
IC50 (HUVEC): > 50 µM

COc1ccc(-n2ccnc2-c2cc(OC)c(OC)c(OC)c2)cc1N
Activity (MDA-MB-468 [2]): Tde
Activity (MDA-MB-468 [3]): 22.9%
IC50 (HCT-15): 0.1 µM
inhibition (Tubulin (Sus scrofa) [18]): 100%
Activity [19]: Non-Toxic
Retention_time [5]: 5 min
inhibition (Mus musculus [20]): Active
Activity (MDA-MB-468 [6]): 3.27%
Activity (MDA-MB-468 [7]): 0.38%
IC50 (MDA-MB-231): 1.04 µM
IC50 (HT-29): 0.2 µM
Activity (MDA-MB-468 [8]): 1.51%
IC50 (T47D): 0.5 µM
inhibition (Tubulin (Sus scrofa) [21]): Dose-dependent effect
IC50 (Tubulin): 0.4 µM
Activity (MDA-MB-468 [9]): 3.56%
viability at 0.1 µM (MDA-MB-468 [10]): 94.5%
solubility thermodynamic at 24 h [22]: 0.0367 mg/mL (≈ 103 µM)
Activity (MDA-MB-468 [11]): 1.18%
inhibition in vivo at 60 mg/kg (MDA-MB-468 [12]): 77%
logP at 1 h [23]: 1.77
inhibition in vivo at 30 mg/kg (MDA-MB-468 [24]): 48%
Activity (MDA-MB-468 [13]): 1.53%
viability at 0.1 µM (MDA-MB-468 [14]): 72.3%
IC50 (HeLa): 0.08 µM
IC50 (MDA-MB-468 [1]): 0.09 µM
Activity (MDA-MB-468 [15]): 4.19%
Activity (MDA-MB-468 [16]): 15%
IC50 (HUVEC): 58.5 µM
Ratio [25]: 13
viability at 0.1 µM (MDA-MB-468 [17]): 79.6%

COc1ccc(-n2ccnc2-c2cc(OC)c(OC)c(OC)c2)cc1O
IC50 (HCT-15): 0.2 µM
IC50 (MDA-MB-231): 1.9 µM
IC50 (HT-29): 16.9 µM
IC50 (T47D): 53.1 µM
IC50 (HeLa): 0.1 µM
IC50 (MDA-MB-468 [1]): 0.3 µM
IC50 (HUVEC): 54.2 µM
